The record followed here is patent US7598389B2, “Silylated carboxamides” (Bayer Cropscience AG, priority 2003, dated 2009).

System in one series: not listed separately
Put plainly: log P determination by HPLC on reverse-phase column (EEC Directive 79/831 Annex V.A8). It is filed as physicochemical. The note with it: Table 1, C 18 reverse-phase column, 43° C., acidic range (pH 2.3). On the procedure:
The given log P values were determined in accordance with EEC Directive 79/831 Annex V.A8 by HPLC (High Performance Liquid Chromatography) on a reverse-phase column (C 18). Temperature: 43° C.
Mobile phases for the determination in the acidic range (pH 2.3): 0.1% aqueous phosphoric acid, acetonitrile; linear gradient from 10% acetonitrile to 90% acetonitrile.
Calibration was carried out using unbranched alkan-2-ones (3 to 16 carbon atoms) with known log P values (determination of the log P values by the retention times using linear interpolation between two successive alkanones).
For the molecule `Cc1occc1C(=O)Nc1ccccc1CC[Si](C)(C)C` [Example 16], the logP was 4.03.
`C[Si](C)(C)CCc1ccccc1NC(=O)c1sccc1I` [Example 24] yielded a logP of 4.85.
Same read-out and setting: for `CC(C[Si](C)(C)C)c1ccccc1NC(=O)c1sccc1I` (racemic) [Example 12] the value was 5.05; for `C[Si](C)(C)CCc1ccccc1NC(=O)c1ccccc1I` [Example 4], 4.40; for `Cn1cc(C(=O)Nc2ccccc2CC[Si](C)(C)C)c(Cl)n1` [Example 14], 3.89.
In turn, `C[Si](C)(C)CCc1ccccc1NC(=O)c1ccccc1Cl` [Example 5] registered a logP of 4.29.
The same measure, in the same setting: as for `CC(C[Si](C)(C)C)c1ccccc1NC(=O)c1ccccc1I` (racemic) [Example 2], the figure is 4.67; as for `CC(C[Si](C)(C)C)c1ccccc1NC(=O)c1cn(C)nc1I` (racemic) [Example 15], 3.94; as for `CC(C[Si](C)(C)C)c1ccccc1NC(=O)c1ccccc1C(F)(F)F` (racemic) [Example 3], 4.63.
On the same count and under the same terms, for `C[Si](C)(C)C#Cc1ccccc1NC(=O)c1ccccc1Br` [Example 21] the value was 4.93; for `CC(C[Si](C)(C)C)c1cc(F)ccc1NC(=O)c1ccccc1C(F)(F)F` (racemic) [Example 22], 4.61; for `Cn1cc(C(=O)Nc2ccccc2CC[Si](C)(C)C)c(C(Cl)Cl)n1` [Example 9], 3.95.
Same read-out and setting: as for `CC(C[Si](C)(C)C)c1cc(F)ccc1NC(=O)c1ccccc1I` (racemic) [Example 23], the figure is 4.64.
Molecule `Cc1occc1C(=O)Nc1ccccc1C(C)C[Si](C)(C)C` (racemic) [Example 17] yielded a logP of 4.33.
On to `C[Si](C)(C)CCc1ccccc1NC(=O)c1ccccc1C(F)(F)F` [Example 6], for which the logP is listed as 4.37.
The molecule `C[Si](C)(C)C#Cc1ccccc1NC(=O)c1ccccc1C(F)(F)F` [Example 18] came in with a lipophilicity (logP) of 4.78.
`C[Si](C)(C)CCc1cc(F)ccc1NC(=O)c1ccccc1C(F)(F)F` [Example 26] registered a lipophilicity (logP) of 4.39.
`CC(C[Si](C)(C)C)c1ccccc1NC(=O)c1occc1I` (racemic) [Example 11]: the logP was 4.73.
With `C[Si](C)(C)CCc1cc(F)ccc1NC(=O)c1sccc1I` [Example 25], the logP is 4.79.
`Cn1cc(C(=O)Nc2ccccc2CC[Si](C)(C)C)c(I)n1` [Example 8] had a logP of 3.68.
Still for that read-out and setting: for `CC(C[Si](C)(C)C)c1ccccc1NC(=O)c1ccccc1Br` (racemic) [Example 7] the value was 4.58; for `C[Si](C)(C)C#Cc1ccccc1NC(=O)c1ccccc1I` [Example 19], 4.97; for `Cn1nc(C(F)(F)F)c(C(=O)Nc2ccccc2CC[Si](C)(C)C)c1F` [Example 10], 4.19.
Regarding `C[Si](C)(C)C#Cc1ccccc1NC(=O)c1ccccc1Cl` [Example 20], the logP was found to be 4.96.

Still in this series, the particulars now being: pH 2.3, C 18 reverse-phase column, 43° C.
`CC(C[Si](C)(C)C)c1ccccc1N` (stereo not shown) [Example (III-1), 2-(1-methyl-2-trimethylsilylethyl)phenylamine] showed a chromatographic logP of 3.05.
On the same count and under the same terms, as for `C[Si](C)(C)CCc1ccccc1NC(=O)c1ccccc1Br` [Example 1, 2-bromo-N-[2-(2-trimethylsilyl-ethyl)phenyl]benzamide], the figure is 4.32.
`C[Si](C)(C)CCc1ccccc1N` [Example (III-2), 2-(2-trimethylsilylethyl)phenylamine] returned a chromatographic logP of 2.58.
On the same count and under the same terms, for `C[Si](C)(C)C#Cc1ccccc1[N+](=O)[O-]` [trimethyl-(2-nitrophenyl-ethynyl)silane] the value was 4.12.

In another series the test system is Venturia inaequalis. Put plainly: Venturia test (apple)/protective. The class given is in vivo. To be noted: 240 h, apple plants, protective, application rate 100 g/ha, evaluation 10 days after inoculation, read-out: Efficacy in %. Here is the method: Venturia Test (Apple)/Protective
(§1) To produce a suitable preparation of active compound, 1 part by weight of active compound is mixed with the stated amounts of solvent and emulsifier, and the concentrate is diluted with water to the desired concentration.
To test for protective activity, young plants are sprayed with the preparation of active compound at the stated application rate. After the spray coating has dried on, the plants are inoculated with an aqueous conidia suspension of the apple pathogen Venturia inaequalis and then remain in an incubation cabin at about 20° C. and 100% relative atmospheric humidity for one day.
The plants are then placed in a greenhouse at about 21° C. and a relative atmospheric humidity of about 90%.
Evaluation is carried out 10 days after the inoculation. 0% means an efficacy which corresponds to that of the control, whereas an efficacy of 100% means that no infection is observed.
For `CC(C[Si](C)(C)C)c1ccccc1NC(=O)c1ccccc1I` (stereo not shown) [drawing 55], the pest or weed control at 100 g/ha was found to be 100%.
The same measure, in the same setting: as for `CC(C[Si](C)(C)C)c1ccccc1NC(=O)c1occc1I` (stereo not shown) [drawing 62], the figure is 100%; as for `C[Si](C)(C)CCc1ccccc1NC(=O)c1ccccc1Br` [drawing 57], 87%.
Still for that read-out and setting: as for `C[Si](C)(C)CCc1ccccc1NC(=O)c1ccccc1C(F)(F)F` [drawing 56], the figure is 84%.
Still for that read-out and setting: for `Cn1cc(C(=O)Nc2ccccc2CC[Si](C)(C)C)c(I)n1` [drawing 59] the value was 100%; for `Cc1ccsc1C(=O)Nc1ccccc1CC[Si](C)(C)C` [drawing 60], 100%.
Take `CC(C[Si](C)(C)C)c1ccccc1NC(=O)c1ccccc1C(F)(F)F` (stereo not shown) [drawing 54]: the pest or weed control at 100 g/ha came out at 99%.
Still for that read-out and setting: as for `CC(C[Si](C)(C)C)c1ccccc1NC(=O)c1cn(C)nc1I` (stereo not shown) [drawing 64], the figure is 99%; as for `CC(C[Si](C)(C)C)c1ccccc1NC(=O)c1sccc1I` (stereo not shown) [drawing 63], 100%.
The same measure, in the same setting: for `C[Si](C)(C)CCc1cc(F)ccc1NC(=O)c1sccc1I` [drawing 61] the value was 100%; for `Cn1nc(C(F)(F)F)c(C(=O)Nc2ccccc2CC[Si](C)(C)C)c1F` [drawing 58], 100%.

Another series relates to Puccinia recondite. Put plainly: Puccinia test (wheat)/protective. The class given is in vivo. To be noted: 240 h, wheat plants, protective, application rate 500 g/ha, evaluation ten days after inoculation, read-out: Efficacy in %. On the procedure: Puccinia Test (Wheat)/Protective
To produce a suitable preparation of active compound, 1 part by weight of active compound is mixed with the stated amount of solvent and emulsifier, and the concentrate is diluted with water to the desired concentration.
To test for protective activity, young plants are sprayed with the preparation of active compound at the stated application rate. After the spray coating has dried on, the plants are sprayed with a conidia suspension of Puccinia recondite. The plants remain in an incubation cabin at 20° C. and 100% relative atmospheric humidity for 48 hours.
The plants are then placed in a greenhouse at a temperature of about 20° C. and a relative atmospheric humidity of 80% to promote the development of rust pustules.
Evaluation is carried out ten days after the inoculation. 0% means an efficacy which corresponds to that of the control, whereas an efficacy of 100% means that no infection is observed.
For `C[Si](C)(C)CCc1ccccc1NC(=O)c1ccccc1I` [drawing 70], the pest or weed control at 500 g/ha is 100%.
For `CC(C[Si](C)(C)C)c1ccccc1NC(=O)c1occc1I` (stereo not shown) [drawing 77], the pest or weed control at 500 g/ha stood at 100%.
For the molecule `C[Si](C)(C)CCc1cc(F)ccc1NC(=O)c1sccc1I` [drawing 76], the pest or weed control at 500 g/ha came to 100%.
As for `CC(C[Si](C)(C)C)c1ccccc1NC(=O)c1sccc1I` (stereo not shown) [drawing 78], the pest or weed control at 500 g/ha came to 100%.
Turning to `Cc1ccsc1C(=O)Nc1ccccc1CC[Si](C)(C)C` [drawing 74], the pest or weed control at 500 g/ha is 100%.
As for `CC(C[Si](C)(C)C)c1ccccc1NC(=O)c1ccccc1Br` (stereo not shown), the pest or weed control at 500 g/ha came out at 100%.
Consider `C[Si](C)(C)CCc1ccccc1NC(=O)c1ccccc1Br` [drawing 71], for which the pest or weed control at 500 g/ha was found to be 100%.
`C[Si](C)(C)CCc1ccccc1NC(=O)c1sccc1I` [drawing 75]: the pest or weed control at 500 g/ha worked out at 100%.
On the same count and under the same terms, for `C[Si](C)(C)CCc1ccccc1NC(=O)c1ccccc1C(F)(F)F` [drawing 68] the value was 93%; for `CC(C[Si](C)(C)C)c1ccccc1NC(=O)c1cn(C)nc1I` (stereo not shown) [drawing 80], 100%; for `Cn1cc(C(=O)Nc2ccccc2CC[Si](C)(C)C)c(I)n1` [drawing 72], 100%.
Take `CC(C[Si](C)(C)C)c1ccccc1NC(=O)c1ccccc1I` (stereo not shown) [drawing 69]: the pest or weed control at 500 g/ha came to 100%.
On the same count and under the same terms, for `Cc1occc1C(=O)Nc1ccccc1CC[Si](C)(C)C` [drawing 73] the value was 100%.

In a further series the test system is Sphaerotheca fuliginea. Put plainly: Sphaerotheca test (cucumber)/protective. The class given is in vivo. The note with it: cucumber plants, protective; application rate 750 g/ha; evaluation 7 days after inoculation. On the procedure:
Sphaerotheca Test (Cucumber)/Protective
as §1
To test for protective activity, young cucumber plants are sprayed with the preparation of active compound at the stated application rate. One day after the treatment, the plants are inoculated with a spore suspension of Sphaerotheca fuliginea. The plants are then placed in a greenhouse at 70% relative atmospheric humidity and a temperature of 23° C.
Evaluation is carried out 7 days after the inoculation. 0% means an efficacy which corresponds to that of the control, whereas an efficacy of 100% means that no infection is observed.
`C[Si](C)(C)CCc1ccccc1NC(=O)c1ccccc1Br` [drawing 67] showed an Efficacy in % of 100%.
On the same count and under the same terms, as for `CC(C[Si](C)(C)C)c1ccccc1NC(=O)c1ccccc1I` (stereo not shown) [drawing 66], the figure is 100%; as for `CC(C[Si](C)(C)C)c1ccccc1NC(=O)c1ccccc1C(F)(F)F` (stereo not shown) [drawing 65], 100%.

The term logP denotes the decadic logarithm of the partition coefficient of the neutral form, usually between octanol and water. The low end stands for lower lipophilicity, the high end for higher lipophilicity. What is called chromatographic logP is a lipophilicity value derived from retention on a column. A low value points to lower lipophilicity.
